Measured values published in US9212168B2 (priority 2011, dated 2015).

Test system: HCV genotype 1a replicon
Assay: HCV genotype 1a replicon assay (NS3 protease activity readout)
Assay type: cell-based, hepatitis C virus
Details: for EC50: Hepatitis C virus, read-out: Genotype 1a, HCV genotype 1a replicon; for Genotype 1a: HCV genotype 1a replicon
Description: Assay 2: HCV Genotype 1a Replicon Assay
The HCV genotype 1a replicon cell line was obtained from Apath LLC (APC89; Huh7.5 cell background). This subgenomic replicon contains the N-terminus of the HCV core protein fused to the neomycin-resistance selectable marker. The EMCV IRES lies downstream and drives expression of the non-structural proteins NS3-NS5B. Compound potencies were determined using the NS3-specific protease activity in lysates as a measurement of compound inhibition of replicon levels.
Cells were grown at 37° C. in a 5% CO2 humidified incubator in DMEM (Invitrogen) with 10% FBS (HyClone), 1×NEAA (Invitrogen), 1× Pen-Strep (Invitrogen), and 850 μg/mL G418 (Invitrogen). On day 1 of the assay, cells were plated at 15,000 cells/well in black 96-well tissue culture plates (Costar) in 200 μL media lacking G418. Four hours later, once the cells had adhered, the media was removed and replaced with media (no G418) containing dose-responses of test compounds. Compounds were initially diluted in DMSO and then diluted another 200× in media to bring the final DMSO concentration down to 0.5%. The cells were incubated with test compounds for 48 or 72 hours. At the end of the incubation period, media and compound were removed from the plates.
To determine the NS3-specific protease activity in lysates, the cells were lysed at room temperature in 50 μL/well of 50 mM Hepes pH 7.5, 150 mM NaCl, 15% Glycerol, 0.15% Triton X-100, 10 mM DTT for 20 minutes with shaking. 50 μL of an NS3/4a protease-specific FRET substrate (Anaspec RET S1 Cat#22991) was then added to the wells at a final concentration of 15 μM. The plates were incubated at 37° C. for 20 minutes, which corresponds to a timepoint at which the protease activity is still in the linear phase. Protease activity was determined by measuring fluorescence (Excitation: 340 nm; Emission: 509 nm).
To analyze the data, the fluorescence was plotted vs. the compound concentration, and EC50 values were determined from a 4-parameter robust fit model using GraphPad Prism software.

| Structure (SMILES) | EC50 [nM] | Genotype 1a |
| --- | --- | --- |
| COCCO[C@H](C)[C@H](NC(=O)OC)C(=O)N1C[C@@H](C)C[C@H]1c1nc(-c2ccc(-c3cc(Cl)c(NC(=O)c4ccc(N5CCN(C(=O)C(C)(C)C)C[C@H]5C)nc4)cc3OC(F)(F)F)cc2)c[nH]1 [Example 13-9] | < 0.1 | – |
| COC(=O)N[C@H](C(=O)N1[C@@H]2C[C@@H]2C[C@H]1c1nc(-c2ccc(-c3cc(Cl)c(NC(=O)c4ccc(N5CCN(C(=O)C6CC67CC7)C[C@H]5C)nc4)cc3C(F)(F)F)cc2)c[nH]1)C(C)C (stereo partly drawn) [Example 8-6] | 0.1 to 1 | – |
| COC(=O)N[C@H](C(=O)N1C[C@@H](C)C[C@H]1c1nc(-c2ccc(-c3cc(Cl)c(C(=O)Nc4ccc(N5CCN(C(=O)C(C)(C)C)C[C@@H]5C)nc4)cc3OC(F)(F)F)cc2)c[nH]1)C1CCOCC1 [24-2] | – | C (C represents pEC50 between and 9 and about 10, (EC50 between 1 nM and 0.1 nM)) |
| COC(=O)NC(C(=O)N1C[C@@H](C)C[C@H]1c1nc(-c2ccc(-c3cc(Cl)c(C(=O)Nc4ccc(N5CCN(C(=O)C(C)(C)C)C[C@H]5C)nc4)cc3OC(F)(F)F)cc2)c[nH]1)C1C[C@@H](C)O[C@@H](C)C1 (stereo partly drawn) [Example 23-1] | – | A (A represents a pEC50 value between 6 and 8 (EC50 between 1 μM and 10 nM)) |
| COC[C@H]1C[C@@H](c2nc(-c3ccc(-c4ccc(C(=O)Nc5ccc(N6CCN(C(=O)C(C)(C)C)C[C@H]6C)nc5)c(Cl)c4OC(F)(F)F)cc3)c[nH]2)N(C(=O)[C@@H](NC(=O)OC)C2CCOCC2)C1 [Example 25-6] | – | C (C represents pEC50 between and 9 and about 10, (EC50 between 1 nM and 0.1 nM)) |
| CNC(=O)N1CCC[C@@]1(C)C(=O)N1C[C@@H](C)N(c2ccc(C(=O)Nc3cc(OC(F)(F)F)c(-c4ccc(-c5c[nH]c([C@@H]6C[C@H](C)CN6C(=O)[C@@H](NC(=O)OC)C(C)C)n5)cc4)cc3F)cn2)C[C@@H]1C [Example 1-24] | – | D (D represents pEC50>10 (EC50<0.1 nM)) |
| COC(=O)NC(C(=O)N1C[C@@H](C)C[C@H]1c1nc(-c2ccc(-c3c(F)cc(NC(=O)c4ccc(N5CCN(C(=O)C(C)(C)C)C[C@H]5C)nc4)cc3F)cc2)c[nH]1)C1CCCCC1 (stereo partly drawn) [Example 21-4] | – | C (C represents pEC50 between and 9 and about 10, (EC50 between 1 nM and 0.1 nM)) |
| CNC(=O)N1CCC[C@@H]1C(=O)N1CCN(c2ccc(C(=O)Nc3cc(OC(F)(F)F)c(-c4ccc(-c5c[nH]c([C@@H]6C[C@H](C)CN6C(=O)[C@@H](NC(=O)OC)C(C)C)n5)cc4)cc3Cl)cn2)[C@H](C)C1 [Example 1-38] | – | D (D represents pEC50>10 (EC50<0.1 nM)) |
| CNC(=O)N1CCN(c2ccc(C(=O)Nc3ccc(-c4ccc(-c5c[nH]c([C@@H]6C[C@H](O)CN6C(=O)[C@@H](NC(=O)OC)C(C)C)n5)cc4)cc3)cn2)[C@H](C)C1 [Example 26-3] | – | B (B represents pEC50 between 8 and 9 (EC50 between 1 and 10 nM)) |
| CC[C@@H](C)C(=O)N1CCN(c2ccc(C(=O)Nc3cc(OC(F)(F)F)c(-c4ccc(-c5c[nH]c([C@@H]6C[C@H](C)CN6C(=O)[C@@H](NC(=O)OC)C(C)C)n5)cc4)cc3Cl)cn2)[C@H](C)C1 [Example 1-86] | – | D (D represents pEC50>10 (EC50<0.1 nM)) |
| COC(=O)N[C@H](C(=O)N1[C@@H](C)CC[C@H]1c1nc(-c2ccc(-c3ccc(C(=O)Nc4ccc(N5CCN(C(=O)C(C)(C)C)C[C@H]5C)nc4)cc3OC(F)(F)F)cc2)c(Cl)[nH]1)C(C)C [Example 18-2] | – | C (C represents pEC50 between and 9 and about 10, (EC50 between 1 nM and 0.1 nM)) |
| COC(=O)N[C@H](C(=O)N1C[C@@H](C)C[C@H]1c1nc(-c2ccc(-c3cc(Cl)c(NC(=O)c4ccc(N5CCN(C(=O)C6CCCN6C(N)=O)C[C@H]5C)nc4)cc3OC(F)(F)F)cc2)c[nH]1)C(C)C (stereo partly drawn) [Example 12-6] | < 0.1 | – |
| COC(=O)N[C@H](C(=O)N1C[C@@H](N2CCCC2)C[C@H]1c1nc(-c2ccc(-c3cc(Cl)c(NC(=O)c4ccc(N5CCN(C(=O)C(C)(C)C)C[C@H]5C)nc4)cc3OC(F)(F)F)cc2)c[nH]1)C(C)C [Example 15-9] | < 0.1 | – |
| COC(=O)N[C@H](C(=O)N1C[C@@H](OC)C[C@H]1c1nc(-c2ccc(-c3cc(Cl)c(NC(=O)c4ccc(N5CCN(C(=O)C(C)(C)CO)C[C@H]5C)nc4)cc3C(F)(F)F)cc2)c[nH]1)C1CCCCC1 [Example 19-15] | – | D (D represents pEC50>10 (EC50<0.1 nM)) |
| CCCC(=O)N1CCN(c2ccc(C(=O)Nc3cc(OC(F)(F)F)c(-c4ccc(-c5c[nH]c([C@@H]6C[C@H](C)CN6C(=O)[C@@H](NC(=O)OC)C(C)C)n5)cc4)cc3Cl)cn2)[C@H](C)C1 [Example 1-68] | – | C (C represents pEC50 between and 9 and about 10, (EC50 between 1 nM and 0.1 nM)) |
| COCC(=O)N1CCC[C@@]1(C)C(=O)N1CCN(c2ccc(C(=O)Nc3ccc(-c4ccc(-c5c[nH]c([C@@H]6CC7(CN6C(=O)[C@@H](NC(=O)OC)C(C)C)OCCO7)n5)cc4)c(OC(F)(F)F)c3)cn2)[C@H](C)C1 [Example 5-2] | < 0.1 | – |
| COC(=O)N[C@H](C(=O)N1C[C@@H](C)C[C@H]1c1nc(-c2ccc(-c3ccc(C(=O)Nc4ccc(N5CCN(C(=O)C6CC6)C[C@H]5C)nc4)cc3OC(F)(F)F)cc2)c(Cl)[nH]1)C(C)C [Example 4-31] | – | C (C represents pEC50 between and 9 and about 10, (EC50 between 1 nM and 0.1 nM)) |
| CNC(=O)NCC(C)(C)C(=O)N1CCN(c2ccc(C(=O)Nc3cc(OC(F)(F)F)c(-c4ccc(-c5c[nH]c([C@@H]6C[C@H](C)CN6C(=O)[C@@H](NC(=O)OC)C(C)C)n5)cc4)cc3Cl)cn2)[C@H](C)C1 [Example 12-40] | < 0.1 | – |
| CC(C)[C@@H](C(=O)N1C[C@@H](C)C[C@H]1c1nc(-c2ccc(-c3cc(Cl)c(NC(=O)c4ccc(N5CCN(C(=O)C(C)(C)C)C[C@H]5C)nc4)cc3OC(F)(F)F)cc2)c[nH]1)N1CCCCC1 [Example 13-2] | 10 to 1000 | – |
| COC(=O)NC(C(=O)N1CC(C)CC1c1nc(-c2ccc(-c3ccc(NC(=O)c4ccc(N5CCN(C(=O)C(C)(C)CO)CC5C)nc4)cc3OC(F)(F)F)cc2)c[nH]1)C1CCOCC1 (stereo not drawn) [Example 13-32] | – | D (D represents pEC50>10 (EC50<0.1 nM)) |
| COC(=O)N[C@H](C(=O)N1CC(C)(C)C[C@H]1c1nc(-c2ccc(-c3ccc(C(=O)Nc4ccc(N5CCN(C(=O)C6CC6(C)C)C[C@H]5C)nc4)cc3OC(F)(F)F)cc2)c[nH]1)C(C)C (stereo partly drawn) [Example 6-8] | 0.1 to 1 | – |
| COC(=O)N[C@H](C(=O)N1C[C@@H](C)C[C@H]1c1nc(-c2ccc(-c3ccc(C(=O)Nc4ccc(N5CCN(C(=O)[C@]6(C)CCCN6C(=O)[C@@H](NC(=O)OC)C(C)C)C[C@H]5C)nc4)cc3OC(F)(F)F)cc2)c[nH]1)C(C)C [Example 4-3] | – | D (D represents pEC50>10 (EC50<0.1 nM)) |
| COC(=O)N[C@H](C(=O)N1C[C@@H](C)C[C@H]1c1nc(-c2ccc(-c3cc(Cl)c(NC(=O)c4ccc(N5CCN(C(=O)C6CCC6C)C[C@H]5C)nc4)cc3OC(F)(F)F)cc2)c[nH]1)C(C)C (stereo partly drawn) [Example 1-91] | – | D (D represents pEC50>10 (EC50<0.1 nM)) |
| COC(=O)NC(C(=O)N1CC(F)CC1c1nc(-c2ccc(-c3cc(Cl)c(NC(=O)c4ccc(N5CCN(C(=O)C(C)(C)CO)CC5C)nc4)cc3OC(F)(F)F)cc2)c[nH]1)C1CCOCC1 (stereo not drawn) [Example 29-4] | – | D (D represents pEC50>10 (EC50<0.1 nM)) |
| COC(=O)NC(C(=O)N1C[C@@H](OC)C[C@H]1c1nc(-c2ccc(-c3cc(Cl)c(NC(=O)c4ccc(N5CCN(C(=O)C(C)(C)C)C[C@H]5C)nc4)cc3C(F)(F)F)cc2)c[nH]1)C1CCS(=O)(=O)CC1 (single isomer, unassigned) [Example 19-18] | – | C (C represents pEC50 between and 9 and about 10, (EC50 between 1 nM and 0.1 nM)) |
| COC(=O)N[C@H](C(=O)N1C[C@@H](C)C[C@H]1c1nc(-c2ccc(-c3cc(F)c(NC(=O)c4ccc(N5CCN(C(=O)c6c[nH]cn6)C[C@H]5C)nc4)cc3C(F)(F)F)cc2)c[nH]1)C(C)C [Example 1-29] | – | D (D represents pEC50>10 (EC50<0.1 nM)) |
| CCCCC(=O)N1CCN(c2ccc(C(=O)Nc3cc(OC(F)(F)F)c(-c4ccc(-c5c[nH]c([C@@H]6C[C@H](C)CN6C(=O)[C@@H](NC(=O)OC)C(C)C)n5)cc4)cc3Cl)cn2)[C@H](C)C1 [Example 1-71] | – | C (C represents pEC50 between and 9 and about 10, (EC50 between 1 nM and 0.1 nM)) |
| COC(=O)NC(C(=O)N1C[C@@H](C)C[C@H]1c1nc(-c2ccc(-c3ccc(C(=O)Nc4ccc(N5CCN(C(=O)C(C)(C)C)C[C@H]5C)nc4)c(F)c3OC(F)(F)F)cc2)c[nH]1)C(C)C (stereo partly drawn) [Example 25-1] | 0.1 to 1 | – |
| COC(=O)N[C@H](C(=O)N1C[C@@H](C)C[C@H]1c1nc(-c2ccc(-c3cc(Cl)c(NC(=O)c4ccc(N5CCN(C(=O)N(CCO)CCO)C[C@H]5C)nc4)cc3OC(F)(F)F)cc2)c[nH]1)C(C)C [Example 12-16] | 0.1 to 1 | – |
| COC(=O)N[C@@H](C(=O)N1C[C@@H](C)C[C@H]1c1nc(-c2ccc(-c3cc(Cl)c(NC(=O)c4ccc(N5CCN(C(=O)C(C)(C)C)C[C@H]5C)nc4)cc3OC(F)(F)F)cc2)c[nH]1)C1CCCCC1 [Example 13-40] | 10 to 1000 | – |
